# Test results taken from ChEMBL document CHEMBL5113404, “Design, synthesis and biological evaluation of new parbendazole derivatives for the treatment of HNSCC” (Eur J Med Chem, 2022).
# Key:
# Tubulin (Homo sapiens) = Tubulin (Homo sapiens) (UniProt P68371+Q9H4B7+P0DPH7+P68366+Q13509+Q71U36+P04350+Q3ZCM7+P07437+P68363+Q9BQE3+Q6PEY2+Q13885+Q9BVA1+Q9BUF5); assay: Inhibition of tubulin polymerization (unknown origin) at 20 micromol/L by fluorescence based analysis; type: protein-complex assay; conditions: dose 20.0 µmol/L
# [1] = Antiproliferative activity against human HN-6 cells assessed as cell growth inhibition incubated for 72 hrs by CCK-8 assay; type: functional, cell-based; conditions: HN-6, 72 h
# FaDu = assay: Antiproliferative activity against human FaDu cells assessed as cell growth inhibition incubated for 72 hrs by CCK-8 assay; type: functional, cell-based
# CAL-27 = assay: Antiproliferative activity against human CAL-27 cells assessed as cell growth inhibition incubated for 72 hrs by CCK-8 assay; type: functional, cell-based; conditions: CAL-27, 72 h
# Tubulin = assay: Inhibition of tubulin polymerization (unknown origin) by fluorescence based analysis; type: protein-complex assay, Homo sapiens
SMILES,inhibition (Tubulin (Homo sapiens)) [%],IC50 [1] [µM],IC50 (FaDu; read-out: IC50) [µM],IC50 (CAL-27) [µM],IC50 (Tubulin) [µM],IC50 (FaDu) [µM]
CCCCc1ccc2nc(NC(=O)NC3CCCCC3)[nH]c2c1,8.26,0.967,–,–,–,–
CC[C@]1(O)C[C@@H]2CN(CCc3c([nH]c4ccccc34)[C@@](C(=O)OC)(c3cc4c(cc3OC)N(C)[C@H]3[C@@](O)(C(=O)OC)[C@H](OC(C)=O)[C@]5(CC)C=CCN6CC[C@]43[C@@H]65)C2)C1 [VINBLASTINE],–,0.00083,0.00448,0.00103,–,–
Cc1cc2nc(NC(=O)OC(C)C)[nH]c2cc1C,89.4,0.135,–,–,5.08,–
CC(C)OC(=O)Nc1nc2cc(F)c(F)cc2[nH]1,12.6,1.37,–,–,–,–
CCCCOC(=O)Nc1nc2ccc(CCCC)cc2[nH]1,44.1,0.254,–,–,–,–
CCCCc1ccc2nc(NC(=O)OCc3ccccc3)[nH]c2c1,10.5,> 2,–,–,–,–
CCCCc1ccc2nc(NC(=O)OCCCCl)[nH]c2c1,36.4,0.456,–,–,–,–
CCCCc1ccc2nc(NC(=O)c3ccco3)[nH]c2c1,57.7,0.349,–,–,16.2,–
CCCCc1ccc2nc(NC(=O)C3CCOCC3)[nH]c2c1,100,1.18,–,–,4.4,–
CCCCc1ccc2nc(NC(=O)OCCCl)[nH]c2c1,0,> 2,–,–,–,–
C=CCNC(=O)Nc1nc2ccc(CCCC)cc2[nH]1,8.4,0.392,0.282,0.216,–,–
CCCCc1ccc2nc(NC(=O)OC3CCCC3)[nH]c2c1,8.6,1.69,–,–,–,–
CCCCc1ccc2nc(NC(=O)OCC(CC)CCCC)[nH]c2c1 (stereo not drawn),9.96,> 2,–,–,–,–
CCCCCCOC(=O)Nc1nc2ccc(CCCC)cc2[nH]1,0,> 2,–,–,–,–
CCCCc1ccc2nc(NC(=O)NC(C)(C)C)[nH]c2c1,9.79,> 2,–,–,–,–
CCCCc1ccc2nc(NC(=O)NCCC)[nH]c2c1,2.99,0.549,–,–,–,–
CCCCc1ccc2nc(NC(=O)NCCc3ccccc3)[nH]c2c1,38.7,0.429,0.775,0.499,–,–

SMILES,inhibition (Tubulin (Homo sapiens)) [%],IC50 [1] [µM],IC50 (FaDu; read-out: IC50) [µM],IC50 (CAL-27) [µM],IC50 (Tubulin) [µM],IC50 (FaDu) [µM]
CCCCc1ccc2nc(NC(=O)OC(C)CC)[nH]c2c1 (stereo not drawn),99.7,0.0746,0.154,0.171,1.62,–
COc1cc2c(c(OC)c1OC)-c1ccc(OC)c(=O)cc1[C@@H](NC(C)=O)CC2 [COLCHICINE],–,0.0195,–,0.0375,–,0.0228
CCCCCCNC(=O)Nc1nc2ccc(CCCC)cc2[nH]1,12.5,1.4,–,–,–,–
CCCCc1ccc2nc(NC(=O)NCCOC(=O)C(C)C)[nH]c2c1,0,1.59,–,–,–,–
CC(C)OC(=O)Nc1nc2ccc(C(F)(F)F)cc2[nH]1,4.37,1,–,–,–,–
CCCCc1ccc2nc(NC(=O)Cc3ccccc3)[nH]c2c1,4.9,> 2,–,–,–,–
COc1ccc(/C=C\c2cc(OC)c(OC)c(OC)c2)cc1O [COMBRETASTATIN A4],–,0.00443,0.00505,0.00301,–,–
CCCCc1ccc2nc(NC(=O)NC(C)C)[nH]c2c1,9.65,0.856,–,–,–,–
CCCCc1ccc2nc(NC(=O)NC3CCCC3)[nH]c2c1,32.3,0.745,–,–,–,–
Cc1ccc2nc(NC(=O)OC(C)C)[nH]c2c1,71.6,0.595,–,–,6.27,–
CCCCCc1ccc2nc(NC(=O)OC(C)C)[nH]c2c1,100,0.17,0.228,0.312,6.81,–
CCCCc1ccc2nc(NC(=O)OCC(C)C)[nH]c2c1,34.4,0.412,–,–,–,–
CCCCCCCOC(=O)Nc1nc2ccc(CCCC)cc2[nH]1,0,> 2,–,–,–,–
CC(C)OC(=O)Nc1nc2ccc(C#N)cc2[nH]1,3.43,> 2,–,–,–,–
CC(C)OC(=O)Nc1nc2ccc(F)cc2[nH]1,0.85,1.47,–,–,–,–
CCCCc1ccc2nc(NC(=O)NCC)[nH]c2c1,0,0.187,–,–,–,–
CCCCc1ccc2nc(NC(=O)OCCC)[nH]c2c1,88.8,0.254,0.284,0.252,5.34,–
